Assay [1] deals with MCF7. As to the kind of experiment: Cytotoxicity against human MCF7 cells assessed as cell viability at 2 uM after 2 days by MTT assay relative to control. The format is functional. Conditions: MCF7, 48 h, read-out: Activity.
Assay [2] deals with MCF7. The assay can be described thus: Cytotoxicity against human MCF7 cells assessed as cell viability at 1 uM after 2 days by MTT assay relative to control. The format is functional. Conditions: MCF7, 48 h, read-out: Activity. For orientation: Formazan colour is commonly taken as a measure of viable cells.
The subject of assay [3] is MCF7. The assay can be described thus: Cytotoxicity against human MCF7 cells assessed as cell viability at 5 uM after 2 days by MTT assay relative to control. The conditions noted are these: MCF7, 48 h, read-out: Activity. In kind it is functional.
Assay [4] relates to HeLa. The assay can be described thus: Cytotoxicity against human HeLa cells assessed as cell viability at 20 uM after 2 days by MTT assay relative to control. The format is functional. Conditions: 48 h, read-out: Activity.
The test system of assay [5] is MCF7. As to the kind of experiment: Cytotoxicity against human MCF7 cells assessed as cell viability at 10 uM after 2 days by MTT assay relative to control. The format is functional. The conditions noted are these: MCF7, 48 h, read-out: Activity.
The subject of assay [6] is HeLa. As to the kind of experiment: Cytotoxicity against human HeLa cells assessed as cell viability at 1 uM after 2 days by MTT assay relative to control. In kind it is functional. The conditions noted are these: 48 h, read-out: Activity.
Assay [7] relates to HeLa. As to the kind of experiment: Induction of apoptosis in human HeLa cells assessed as late apoptotic cells at 3 uM after 48 hrs by Annexin V/propidium iodide staining based flow cytometric analysis (reference value: 31.80 +/- 0.25 %). In kind it is functional. A general note: In flow cytometry, cells or beads pass a laser one at a time.
Assay [8] deals with HeLa. The assay can be described thus: Induction of apoptosis in human HeLa cells assessed as necrotic cells at 3 uM after 48 hrs by Annexin V/propidium iodide staining based flow cytometric analysis (reference value: 21.45 +/- 0.78 %). The format is functional.
In assay [9] the test system is HeLa. As to the kind of experiment: Induction of apoptosis in human HeLa cells assessed as viable cells at 3 uM after 48 hrs by Annexin V/propidium iodide staining based flow cytometric analysis (reference value: 46.00 +/- 0.56 %). In kind it is functional. The conditions noted are these: read-out: Activity.
In assay [10] the test system is HeLa. The assay can be described thus: Cytotoxicity against human HeLa cells assessed as cell viability at 2 uM after 2 days by MTT assay relative to control. The format is functional. The conditions noted are these: 48 h, read-out: Activity.
In assay [11] the test system is HeLa. The assay can be described thus: Cytotoxicity against human HeLa cells assessed as cell viability at 10 uM after 2 days by MTT assay relative to control. In kind it is functional. Conditions: 48 h, read-out: Activity.
Assay [12] concerns MCF7. The assay can be described thus: Cytotoxicity against human MCF7 cells assessed as reduction in cell viability after 2 days by MTT assay. In kind it is functional. Conditions: MCF7, 48 h, read-out: LC50 (the source's name).
Assay [13] relates to HeLa. As to the kind of experiment: Induction of apoptosis in human HeLa cells assessed as caspase 3 activation at 0.75 to 3 uM after 24 hrs by colorimetric analysis. The format is functional, cell-based.
The subject of assay [14] is MCF7. As to the kind of experiment: Cytotoxicity against human MCF7 cells assessed as cell viability at 20 uM after 2 days by MTT assay relative to control. In kind it is functional. The conditions noted are these: MCF7, 48 h, read-out: Activity.
Assay [15] concerns MCF7. As to the kind of experiment: Cytotoxicity against human MCF7 cells assessed as cell viability at 0.5 uM after 2 days by MTT assay relative to control. The format is functional. The conditions noted are these: MCF7, 48 h, read-out: Activity.
Assay [16] deals with HeLa. As to the kind of experiment: Cytotoxicity against human HeLa cells assessed as cell viability at 0.5 uM after 2 days by MTT assay relative to control. In kind it is functional. Conditions: 48 h, read-out: Activity.
In assay [17] the test system is HeLa. As to the kind of experiment: Cytotoxicity against human HeLa cells assessed as reduction in cell viability after 2 days by MTT assay. The format is functional. Conditions: 48 h, read-out: LC50 (the source's name).
The test system of assay [18] is HeLa. As to the kind of experiment: Induction of apoptosis in human HeLa cells assessed as early apoptotic cells at 3 uM after 48 hrs by Annexin V/propidium iodide staining based flow cytometric analysis (reference value: 0.05 +/- 0.07 %). In kind it is functional.
Assay [19] deals with HeLa. The assay can be described thus: Cytotoxicity against human HeLa cells assessed as cell viability at 5 uM after 2 days by MTT assay relative to control. In kind it is functional. Conditions: 48 h, read-out: Activity.
Assay [20] deals with HeLa. As to the kind of experiment: Induction of apoptosis in human HeLa cells assessed as late apoptotic cells at 5 uM after 48 hrs by Annexin V/propidium iodide staining based flow cytometric analysis (reference value: 31.80 +/- 0.25 %). In kind it is functional.
Assay [21] concerns HeLa. As to the kind of experiment: Induction of apoptosis in human HeLa cells assessed as early apoptotic cells at 5 uM after 48 hrs by Annexin V/propidium iodide staining based flow cytometric analysis (reference value: 0.05 +/- 0.07 %). In kind it is functional.
For assay [22], the system named is HeLa. As to the kind of experiment: Induction of apoptosis in human HeLa cells assessed as viable cells at 10 uM after 48 hrs by Annexin V/propidium iodide staining based flow cytometric analysis (reference value: 46.00 +/- 0.56 %). The format is functional. Conditions: read-out: Activity.
Assay [23] has as its system HeLa. The assay can be described thus: Induction of apoptosis in human HeLa cells assessed as necrotic cells at 5 uM after 48 hrs by Annexin V/propidium iodide staining based flow cytometric analysis (reference value: 21.45 +/- 0.78 %). The format is functional.
Assay [24] relates to HeLa. The assay can be described thus: Induction of apoptosis in human HeLa cells assessed as necrotic cells at 2.5 uM after 48 hrs by Annexin V/propidium iodide staining based flow cytometric analysis (reference value: 21.45 +/- 0.78 %). In kind it is functional.
Assay [25] concerns HeLa. The assay can be described thus: Induction of apoptosis in human HeLa cells assessed as necrotic cells at 10 uM after 48 hrs by Annexin V/propidium iodide staining based flow cytometric analysis (reference value: 21.45 +/- 0.78 %). In kind it is functional.
The subject of assay [26] is HeLa. The assay can be described thus: Induction of apoptosis in human HeLa cells assessed as DNA fragmentation at 2.5 to 10 uM after 48 hrs by ethidium bromide staining based agarose gel electrophoresis. The format is functional, cell-based.
In assay [27] the test system is HeLa. The assay can be described thus: Cytotoxicity against human HeLa cells assessed as cell viability at 0.1 uM after 2 days by MTT assay relative to control. In kind it is functional. The conditions noted are these: 48 h, read-out: Activity.
The test system of assay [28] is HeLa. The assay can be described thus: Induction of apoptosis in human HeLa cells assessed as late apoptotic cells at 2.5 uM after 48 hrs by Annexin V/propidium iodide staining based flow cytometric analysis (reference value: 31.80 +/- 0.25 %). The format is functional.
Assay [29] deals with HeLa. The assay can be described thus: Induction of apoptosis in human HeLa cells after 48 hrs by Annexin V/propidium iodide staining based flow cytometric analysis. The format is functional, cell-based.
For assay [30], the system named is HeLa. As to the kind of experiment: Induction of apoptosis in human HeLa cells assessed as viable cells at 2.5 uM after 48 hrs by Annexin V/propidium iodide staining based flow cytometric analysis (reference value: 46.00 +/- 0.56 %). In kind it is functional. Conditions: read-out: Activity.
The subject of assay [31] is HeLa. As to the kind of experiment: Induction of apoptosis in human HeLa cells assessed as caspase 3 activation at 2.5 to 10 uM after 24 hrs by colorimetric analysis. In kind it is functional.
Assay [32] has as its system MCF7. The assay can be described thus: Cytotoxicity against human MCF7 cells assessed as cell viability at 0.1 uM after 2 days by MTT assay relative to control. Conditions: MCF7, 48 h, read-out: Activity. The format is functional.
In assay [33] the test system is HeLa. The assay can be described thus: Induction of apoptosis in human HeLa cells assessed as viable cells at 5 uM after 48 hrs by Annexin V/propidium iodide staining based flow cytometric analysis (reference value: 46.00 +/- 0.56 %). The conditions noted are these: read-out: Activity. The format is functional.
Assay [34] has as its system HeLa. As to the kind of experiment: Induction of apoptosis in human HeLa cells assessed as early apoptotic cells at 2.5 uM after 48 hrs by Annexin V/propidium iodide staining based flow cytometric analysis (reference value: 0.05 +/- 0.07 %). The format is functional.
The test system of assay [35] is HeLa. The assay can be described thus: Induction of apoptosis in human HeLa cells assessed as early apoptotic cells at 10 uM after 48 hrs by Annexin V/propidium iodide staining based flow cytometric analysis (reference value: 0.05 +/- 0.07 %). The format is functional.
In assay [36] the test system is HeLa. As to the kind of experiment: Induction of apoptosis in human HeLa cells assessed as late apoptotic cells at 10 uM after 48 hrs by Annexin V/propidium iodide staining based flow cytometric analysis (reference value: 31.80 +/- 0.25 %). The format is functional.
Assay [37] concerns HeLa. The assay can be described thus: Cytotoxicity against human HeLa cells assessed as cell viability at 100 uM after 2 days by MTT assay relative to control. In kind it is functional. The conditions noted are these: 48 h, read-out: Activity.
For assay [38], the system named is MCF7. As to the kind of experiment: Cytotoxicity against human MCF7 cells assessed as cell viability at 100 uM after 2 days by MTT assay relative to control. In kind it is functional. Conditions: MCF7, 48 h, read-out: Activity.

Activity calls are given as the source filed them. The rule behind the calls is not given here.

Turning to `COc1cccc2c1C(=O)c1c(O)c3c(c(O)c1C2=O)C[C@@](O)(C(=O)CO)C[C@@H]3O[C@H]1C[C@H](N)[C@H](O)[C@H](C)O1.Cl` [DOXORUBICIN HYDROCHLORIDE], the results for the viability at 2 µM in assay [1] and in [10] were 38.4% and 39.2%, respectively. Moreover, the viability at 1 µM came out at 44% in assay [2] and 46% in assay [6]. In addition, the viability at 5 µM in assay [3] turned out to be 34%; in assay [19], 8.53%. The viability at 20 µM is 3.41% in assay [4] and 24% in assay [14]. Further, the viability at 10 µM in [5] came out at 27.5%; in assay [11], 4.43%. The Activity is recorded as 58.5% in assay [7], 40.4% in assay [8] and 0.95% in assay [18]. The viability at 3 µM in [9] was found to be 1.55%. The CC50 turned out to be 1.07 µM in [12] and 0.78 µM in assay [17]. Also, the result in [13] was Active. The viability at 0.5 µM was determined as 66.4% in assay [15] and 62.8% in assay [16].
As for `COc1ccc(-c2cc(C(C)=O)c3[nH]c(-c4ccc(OC)cc4)cc3c2)cc1`, the Activity in assay [20] amounted to 37.55%; in assay [21] it was 0.15%; in assay [23], 42.65%; in assay [24], 23.2%; in assay [25], 47.4%; in [28], 12.9%. Also, the Activity result is “Dose-dependent effect” in [29], 0.1% in assay [34], 0.15% in assay [35] and 47.75% in assay [36]. In addition, the viability at 1 µM stood at 62.6% in assay [2] and 60.2% in assay [6]. Moreover, the results for the viability at 10 µM in assay [22], in [5] and in assay [11] were 3.7%, 56.4% and 37.1%, respectively. For the same molecule, in assay [26], the result was Active. Moreover, the figures for the viability at 0.1 µM in assay [27] and in assay [32] were 74.5% and 96.5%, respectively. For the same molecule, the viability at 2.5 µM in [30] was 65.2%. Further, the “fold change (FC)” value in assay [31] worked out at 4. Also, the values for the CC50 in [12] and in [17] were 25.2 µM and 7.13 µM, respectively. The viability at 5 µM in [33] was 20.4%. In addition, the figures for the viability at 100 µM in assay [37] and in assay [38] were 20.2% and 39.9%, respectively.

For the origin of these results see ChEMBL document CHEMBL4477257, “In vitro cytotoxicity of novel 2,5,7-tricarbo-substituted indoles derived from 2-amino-5-bromo-3-iodoacetophenone” (2016).
